# From patent publication US20180200257A1, “METHODS FOR THE TREATMENT OF INFLAMMATORY DISORDERS” (Galapagos NV, priority 2015, published 2018)
# System: subjects with moderately to severely active RA who have an inadequate response to methotrexate (MTX)
# Experiment: Study 1 (add-on to MTX) - Aspartate Aminotransferase (AST) levels
# Format: in vivo, human
# Conditions: 24 weeks results
# Procedure: Double-blind, placebo-controlled add on study in subjects with moderately to severely active RA who have an inadequate response to methotrexate (MTX) (oral or parenteral).
# 595 subjects randomized to one of 6 dose regimens of Compound 1 (dosed as [Compound 1:HCl:3H2O]) (3 dose levels administered either once or twice daily) or placebo on top of each subject's stable dose of MTX.
# Compound 1 (dosed as [Compound 1:HCl:3H2O]) is dosed for twelve weeks once daily (q.d.) (50 mg, 100 mg or 200 mg) or twice daily (b.i.d.) (25 mg, 50 mg or 100 mg); or placebo.
# At Week 12, the subjects on placebo who have not achieved 20% improvement in swollen joint count (SJC66) and tender joint count (TJC68) are re-randomized automatically to receive Compound 1 (dosed as a [Compound 1:HCl:3H2O]) either at 100 mg q.d. or 50 mg b.i.d. doses in a blinded fashion; subjects on 50 mg q.d. who have not achieved 20% improvement in SJC66 and TJC68 will be assigned to 100 mg q.d. and subjects on 25 mg b.i.d. that have not achieved a 20% improvement in SJC66 and TJC68 will be assigned to 50 mg b.i.d. Subjects who switch treatment at week 12 are handled as if they discontinued at week 12 for the purpose of statistical analysis, whereas subjects in the other groups will maintain their randomized treatment until Week 24.
# AST levels determination is available at Quest Diagnostics, Clinical Trials, Quest House, 125-135 Staines Road, Hounslow, Middlesex, TW3 3JB, United Kingdom under Catalogue n#84450. For Study 3, the data are obtained at BARC Europe, 3B,Industrie Park, Zwijnaarde, B-9052 Ghent, Belgium.
# AST catalyzes the transamination of aspartate and 2-oxoglutarate, forming L-glutamate and oxalacetate. The oxalacetate is reduced to L-malate by malate dehydrogenase, whilst NADH is converted to NAD+, measured spectrophotometrically. Guidelines for the AST value have been issued by the association for Clinical Biochemistry and Laboratory Medicine, 130-132 Tooley Street LONDON SE1 2TU, united Kingdom, wherein the AST value should be below 34 U/l in Female and below 45 U/L in male. As disclosed in the respective study protocols for Study 1 or 2, at week 12, depending on the outcome of their treatment, the subjects may be continued in their initial treatment course, or reassigned to another treatment group in a randomized blinded fashion until week 24. Therefore, the number of subjects (N) for the period of either 12 weeks, or 24 weeks is provided to reflect this redistribution at week 12.
# [1] = continued 100 mg b.i.d., week 1
# [2] = continued 100 mg b.i.d., week 2
# [3] = continued 100 mg b.i.d., week 4
# [4] = continued 100 mg b.i.d., week 8
# [5] = continued 100 mg b.i.d., week 12
# [6] = continued 100 mg b.i.d., week 16
# [7] = continued 100 mg b.i.d., week 20
# [8] = continued 100 mg b.i.d., week 24
# [9] = from 25 mg b.i.d. to 50 mg b.i.d. at 12 weeks, week 1
# [10] = from 25 mg b.i.d. to 50 mg b.i.d. at 12 weeks, week 2
# [11] = from 25 mg b.i.d. to 50 mg b.i.d. at 12 weeks, week 4
# [12] = from 25 mg b.i.d. to 50 mg b.i.d. at 12 weeks, week 8
# [13] = from 25 mg b.i.d. to 50 mg b.i.d. at 12 weeks, week 12
# [14] = from 25 mg b.i.d. to 50 mg b.i.d. at 12 weeks, week 16
# [15] = from 25 mg b.i.d. to 50 mg b.i.d. at 12 weeks, week 20
# [16] = from 25 mg b.i.d. to 50 mg b.i.d. at 12 weeks, week 24
# [17] = from 50 mg q.d. to 100 mg q.d. at 12 weeks, week 1
# [18] = from 50 mg q.d. to 100 mg q.d. at 12 weeks, week 2
# [19] = from 50 mg q.d. to 100 mg q.d. at 12 weeks, week 4
# [20] = from 50 mg q.d. to 100 mg q.d. at 12 weeks, week 8
# [21] = from 50 mg q.d. to 100 mg q.d. at 12 weeks, week 12
# [22] = from 50 mg q.d. to 100 mg q.d. at 12 weeks, week 16
# [23] = from 50 mg q.d. to 100 mg q.d. at 12 weeks, week 20
# [24] = from 50 mg q.d. to 100 mg q.d. at 12 weeks, week 24
# [25] = placebo switched to 50 mg b.i.d. at week 12, week 16
# [26] = placebo switched to 50 mg b.i.d. at week 12, week 20
# [27] = placebo switched to 50 mg b.i.d. at week 12, week 24
# [28] = placebo switched to 100 mg q.d. at week 12, week 16
# [29] = placebo switched to 100 mg q.d. at week 12, week 20
# [30] = placebo switched to 100 mg q.d. at week 12, week 24
structure (smiles),measurement,setting,value
"O=C(Nc1nc2cccc(-c3ccc(CN4CCS(=O)(=O)CC4)cc3)n2n1)C1CC1 [Compound 1, cyclopropanecarboxylic acid {5-[4-(1,1-dioxo-thiomorpholin-4-ylmethyl)-phenyl]-[1,2,4]triazolo[1,5-a]pyridin-2-yl}-amide]",Study 1 - AST Mean CFB,"continued 50 mg q.d., week 12",0.6 IU/L
same,Study 1 - AST Mean percentage CFB,"continued 50 mg q.d., week 12",11.4%
same,Study 1 - AST Mean CFB,"continued 50 mg q.d., week 16",1.4 IU/L
same,Study 1 - AST Mean percentage CFB,"continued 50 mg q.d., week 16",15.1%
same,Study 1 - AST Mean CFB,"continued 50 mg q.d., week 20",2.1 IU/L
same,Study 1 - AST Mean percentage CFB,"continued 50 mg q.d., week 20",16.8%
same,Study 1 - AST Mean CFB,"continued 50 mg q.d., week 24",1.0 IU/L
same,Study 1 - AST Mean percentage CFB,"continued 50 mg q.d., week 24",12.9%
same,Study 1 - AST Mean CFB,[1],1.4 IU/L
same,Study 1 - AST Mean percentage CFB,[1],10.0%
same,Study 1 - AST Mean CFB,[2],2.3 IU/L
same,Study 1 - AST Mean percentage CFB,[2],14.1%
same,Study 1 - AST Mean CFB,[3],2.6 IU/L
same,Study 1 - AST Mean percentage CFB,[3],19.1%
same,Study 1 - AST Mean CFB,[4],1.9 IU/L
same,Study 1 - AST Mean percentage CFB,[4],17.4%
same,Study 1 - AST Mean CFB,[5],2.5 IU/L
same,Study 1 - AST Mean percentage CFB,[5],20.1%
same,Study 1 - AST Mean CFB,[6],3.5 IU/L
same,Study 1 - AST Mean percentage CFB,[6],25.2%
same,Study 1 - AST Mean CFB,[7],3.0 IU/L
same,Study 1 - AST Mean percentage CFB,[7],23.1%
same,Study 1 - AST Mean CFB,[8],5.0 IU/L
same,Study 1 - AST Mean percentage CFB,[8],37.6%
same,Study 1 - AST Mean CFB,"continued 100 mg q.d., week 1",3.0 IU/L
same,Study 1 - AST Mean percentage CFB,"continued 100 mg q.d., week 1",13.5%
same,Study 1 - AST Mean CFB,"continued 100 mg q.d., week 2",1.0 IU/L
same,Study 1 - AST Mean percentage CFB,"continued 100 mg q.d., week 2",9.4%
same,Study 1 - AST Mean CFB,"continued 100 mg q.d., week 4",1.6 IU/L
same,Study 1 - AST Mean percentage CFB,"continued 100 mg q.d., week 4",11.2%
same,Study 1 - AST Mean CFB,"continued 100 mg q.d., week 8",2.8 IU/L
same,Study 1 - AST Mean percentage CFB,"continued 100 mg q.d., week 8",17.1%
same,Study 1 - AST Mean CFB,"continued 100 mg q.d., week 12",2.4 IU/L
same,Study 1 - AST Mean percentage CFB,"continued 100 mg q.d., week 12",15.7%
same,Study 1 - AST Mean CFB,"continued 100 mg q.d., week 16",1.5 IU/L
same,Study 1 - AST Mean percentage CFB,"continued 100 mg q.d., week 16",11.5%
same,Study 1 - AST Mean CFB,"continued 100 mg q.d., week 20",2.6 IU/L
same,Study 1 - AST Mean percentage CFB,"continued 100 mg q.d., week 20",19.2%
same,Study 1 - AST Mean CFB,"continued 100 mg q.d., week 24",4.4 IU/L
same,Study 1 - AST Mean percentage CFB,"continued 100 mg q.d., week 24",28.6%
same,Study 1 - AST Mean CFB,"continued 200 mg q.d., week 1",3.1 IU/L
same,Study 1 - AST Mean percentage CFB,"continued 200 mg q.d., week 1",16.1%
same,Study 1 - AST Mean CFB,"continued 200 mg q.d., week 2",1.9 IU/L
same,Study 1 - AST Mean percentage CFB,"continued 200 mg q.d., week 2",12.8%
same,Study 1 - AST Mean CFB,"continued 200 mg q.d., week 4",2.7 IU/L
same,Study 1 - AST Mean percentage CFB,"continued 200 mg q.d., week 4",18.7%
same,Study 1 - AST Mean CFB,"continued 200 mg q.d., week 8",4.5 IU/L
same,Study 1 - AST Mean percentage CFB,"continued 200 mg q.d., week 8",27.2%
same,Study 1 - AST Mean CFB,"continued 200 mg q.d., week 12",4.8 IU/L
same,Study 1 - AST Mean percentage CFB,"continued 200 mg q.d., week 12",28.8%
same,Study 1 - AST Mean CFB,"continued 200 mg q.d., week 16",6.8 IU/L
same,Study 1 - AST Mean percentage CFB,"continued 200 mg q.d., week 16",36.8%
same,Study 1 - AST Mean CFB,"continued 200 mg q.d., week 20",4.0 IU/L
same,Study 1 - AST Mean percentage CFB,"continued 200 mg q.d., week 20",23.3%
same,Study 1 - AST Mean CFB,"continued 200 mg q.d., week 24",5.2 IU/L
same,Study 1 - AST Mean percentage CFB,"continued 200 mg q.d., week 24",30.6%
same,Study 1 - AST Mean CFB,[9],−5.0 IU/L
same,Study 1 - AST Mean percentage CFB,[9],−12.5%
same,Study 1 - AST Mean CFB,[10],−2.3 IU/L
same,Study 1 - AST Mean percentage CFB,[10],−0.7%
same,Study 1 - AST Mean CFB,[11],−2.9 IU/L
same,Study 1 - AST Mean percentage CFB,[11],−2.7%
same,Study 1 - AST Mean CFB,[12],−4.1 IU/L
same,Study 1 - AST Mean percentage CFB,[12],−7.2%
same,Study 1 - AST Mean CFB,[13],−1.0 IU/L
same,Study 1 - AST Mean percentage CFB,[13],4.5%
same,Study 1 - AST Mean CFB,[14],−3.3 IU/L
same,Study 1 - AST Mean percentage CFB,[14],−2.3%
same,Study 1 - AST Mean CFB,[15],−0.6 IU/L
same,Study 1 - AST Mean percentage CFB,[15],8.2%
same,Study 1 - AST Mean CFB,[16],0.6 IU/L
same,Study 1 - AST Mean percentage CFB,[16],14.2%
same,Study 1 - AST Mean CFB,[17],0.3 IU/L
same,Study 1 - AST Mean percentage CFB,[17],5.0%
same,Study 1 - AST Mean CFB,[18],0.0 IU/L
same,Study 1 - AST Mean percentage CFB,[18],3.4%
same,Study 1 - AST Mean CFB,[19],−0.5 IU/L
same,Study 1 - AST Mean percentage CFB,[19],3.6%
same,Study 1 - AST Mean CFB,[20],−0.4 IU/L
same,Study 1 - AST Mean percentage CFB,[20],3.0%
same,Study 1 - AST Mean CFB,[21],0.1 IU/L
same,Study 1 - AST Mean percentage CFB,[21],4.2%
same,Study 1 - AST Mean CFB,[22],−0.9 IU/L
same,Study 1 - AST Mean percentage CFB,[22],−0.2%
same,Study 1 - AST Mean CFB,[23],0.4 IU/L
same,Study 1 - AST Mean percentage CFB,[23],4.9%
same,Study 1 - AST Mean CFB,[24],−1.7 IU/L
same,Study 1 - AST Mean percentage CFB,[24],−2.5%
same,Study 1 - AST Mean CFB,[25],2.1 IU/L
same,Study 1 - AST Mean percentage CFB,[25],14.9%
same,Study 1 - AST Mean CFB,[26],−0.1 IU/L
same,Study 1 - AST Mean percentage CFB,[26],1.9%
same,Study 1 - AST Mean CFB,[27],3.5 IU/L
same,Study 1 - AST Mean percentage CFB,[27],19.7%
same,Study 1 - AST Mean CFB,[28],1.3 IU/L
same,Study 1 - AST Mean percentage CFB,[28],1.0%
same,Study 1 - AST Mean CFB,[29],1.2 IU/L
same,Study 1 - AST Mean percentage CFB,[29],9.8%
same,Study 1 - AST Mean CFB,[30],3.2 IU/L
same,Study 1 - AST Mean percentage CFB,[30],23.1%
